Test results taken from ChEMBL document CHEMBL3885881, “DrugMatrix”.

Organism: Rattus norvegicus
Test: DrugMatrix - Regimen: Daily Repeat
Format: toxicity, organism-based, Sprague-Dawley
Parameters: regimen Daily Repeat, gender Male, age 6-8 weeks
Conditions: in vivo, po, route oral GAVAGE, vehicle 100 % WATER; for ABSOLUTE BASOPHIL / ABSOLUTE EOSINOPHIL / ABSOLUTE LYMPHOCYTE / ABSOLUTE MONOCYTE / ABSOLUTE SEGMENTED NEUTROPHIL / BASOPHIL / EOSINOPHIL / ERYTHROCYTE COUNT / HEMATOCRIT / HEMOGLOBIN / LEUKOCYTE COUNT / LYMPHOCYTE / MEAN CORPUSCULAR HEMOGLOBIN / MEAN CORPUSCULAR HEMOGLOBIN CONCENTRATION / MEAN CORPUSCULAR VOLUME / MONOCYTE / NEUTROPHIL / NUCLEATED RED BLOOD CELLS / PLATELET COUNT: tissue Blood; for ALANINE AMINOTRANSFERASE / ALBUMIN / ALKALINE PHOSPHATASE / ASPARTATE AMINOTRANSFERASE / BLOOD UREA NITROGEN / CARBON DIOXIDE / CHLORIDE / CHOLESTEROL / CREATINE PHOSPHOKINASE / CREATININE / GLUCOSE / LACTATE DEHYDROGENASE / LIPASE / PHOSPHORUS / POTASSIUM / SODIUM / TOTAL BILIRUBIN / TOTAL PROTEIN / URIC ACID: tissue Plasma
[1] = 0 mg/kg, 72 h, dose level Control, time 3 day
[2] = 0 mg/kg, 120 h, dose level Control, time 5 day
[3] = […], 72 h, dose 0.025 mg/Kg, dose level Low, time 3 day
[4] = […], 72 h, dose 0.25 mg/Kg, dose level High, time 3 day

C[C@@H]1C[C@@H]([C@H](O)CC2CC(=O)NC(=O)C2)C(=O)[C@@H](C)C1 [CYCLOHEXIMIDE]
ABSOLUTE BASOPHIL [1]: 0 CELLS/uL | ABSOLUTE EOSINOPHIL [1]: 25 CELLS/uL | ABSOLUTE LYMPHOCYTE [1]: 14357 CELLS/uL | ABSOLUTE MONOCYTE [1]: 456.33 CELLS/uL | ABSOLUTE SEGMENTED NEUTROPHIL [1]: 1461.67 CELLS/uL | BASOPHIL [1]: 0% | EOSINOPHIL [1]: 0.17% | ERYTHROCYTE COUNT [1]: 5.85 x10E6/uL | HEMATOCRIT [1]: 37.62% | HEMOGLOBIN [1]: 13.87 G/DL | LEUKOCYTE COUNT [1]: 16.3 x10E3/uL | LYMPHOCYTE [1]: 88% | MEAN CORPUSCULAR HEMOGLOBIN [1]: 23.68 pg | MEAN CORPUSCULAR HEMOGLOBIN CONCENTRATION [1]: 36.88 G/DL | MEAN CORPUSCULAR VOLUME [1]: 64.23 fL | MONOCYTE [1]: 2.83% | NEUTROPHIL [1]: 9% | NUCLEATED RED BLOOD CELLS [1]: 0 /100WBC | PLATELET COUNT [1]: 1125.33 x10E3/uL | ALANINE AMINOTRANSFERASE [1]: 49.67 u/L | ALBUMIN [1]: 4.23 G/DL | ALKALINE PHOSPHATASE [1]: 400.83 u/L | ASPARTATE AMINOTRANSFERASE [1]: 89.17 u/L | BLOOD UREA NITROGEN [1]: 16 mg/dL | CARBON DIOXIDE [1]: 31.83 mmol/L | CHLORIDE [1]: 99 MEQ/L | CHOLESTEROL [1]: 76 mg/dL | CREATINE PHOSPHOKINASE [1]: 777.67 u/L | CREATININE [1]: 0.22 mg/dL | GLUCOSE [1]: 158.33 mg/dL | LACTATE DEHYDROGENASE [1]: 186.17 u/L | LIPASE [1]: 9.33 u/L | PHOSPHORUS [1]: 12.95 mg/dL | POTASSIUM [1]: 7.01 MEQ/L | SODIUM [1]: 141.53 MEQ/L | TOTAL BILIRUBIN [1]: 0.18 mg/dL | TOTAL PROTEIN [1]: 6.08 G/DL | URIC ACID [1]: 1.77 mg/dL | ABSOLUTE BASOPHIL [2]: 0 CELLS/uL | ABSOLUTE EOSINOPHIL [2]: 0 CELLS/uL | ABSOLUTE LYMPHOCYTE [2]: 8994.5 CELLS/uL | ABSOLUTE MONOCYTE [2]: 122.33 CELLS/uL | ABSOLUTE SEGMENTED NEUTROPHIL [2]: 666.5 CELLS/uL | BASOPHIL [2]: 0% | EOSINOPHIL [2]: 0% | ERYTHROCYTE COUNT [2]: 5.74 x10E6/uL | HEMATOCRIT [2]: 35.17% | HEMOGLOBIN [2]: 13.28 G/DL | LEUKOCYTE COUNT [2]: 9.78 x10E3/uL | LYMPHOCYTE [2]: 92.33% | MEAN CORPUSCULAR HEMOGLOBIN [2]: 23.15 pg | MEAN CORPUSCULAR HEMOGLOBIN CONCENTRATION [2]: 37.8 G/DL | MEAN CORPUSCULAR VOLUME [2]: 61.27 fL | MONOCYTE [2]: 1.33% | NEUTROPHIL [2]: 6.33% | NUCLEATED RED BLOOD CELLS [2]: 0 /100WBC | PLATELET COUNT [2]: 1117 x10E3/uL | ALANINE AMINOTRANSFERASE [2]: 47.83 u/L | ALBUMIN [2]: 4.33 G/DL | ALKALINE PHOSPHATASE [2]: 414.5 u/L | ASPARTATE AMINOTRANSFERASE [2]: 77.5 u/L | BLOOD UREA NITROGEN [2]: 17 mg/dL | CARBON DIOXIDE [2]: 32.33 mmol/L | CHLORIDE [2]: 99.33 MEQ/L | CHOLESTEROL [2]: 76.33 mg/dL | CREATINE PHOSPHOKINASE [2]: 363.67 u/L | CREATININE [2]: 0.25 mg/dL | GLUCOSE [2]: 173.5 mg/dL | LACTATE DEHYDROGENASE [2]: 129.33 u/L | LIPASE [2]: 9.17 u/L | PHOSPHORUS [2]: 11.52 mg/dL | POTASSIUM [2]: 5.73 MEQ/L | SODIUM [2]: 143.85 MEQ/L | TOTAL BILIRUBIN [2]: 0.2 mg/dL | TOTAL PROTEIN [2]: 6.43 G/DL | URIC ACID [2]: 0.97 mg/dL | ABSOLUTE BASOPHIL [3]: 0 CELLS/uL | ABSOLUTE EOSINOPHIL [3]: 0 CELLS/uL | ABSOLUTE LYMPHOCYTE [3]: 12322.33 CELLS/uL | ABSOLUTE MONOCYTE [3]: 322 CELLS/uL | ABSOLUTE SEGMENTED NEUTROPHIL [3]: 1589 CELLS/uL | BASOPHIL [3]: 0% | EOSINOPHIL [3]: 0% | ERYTHROCYTE COUNT [3]: 5.38 x10E6/uL | HEMATOCRIT [3]: 34.5% | HEMOGLOBIN [3]: 12.73 G/DL | LEUKOCYTE COUNT [3]: 14.23 x10E3/uL | LYMPHOCYTE [3]: 86.67% | MEAN CORPUSCULAR HEMOGLOBIN [3]: 23.63 pg | MEAN CORPUSCULAR HEMOGLOBIN CONCENTRATION [3]: 36.93 G/DL | MEAN CORPUSCULAR VOLUME [3]: 64 fL | MONOCYTE [3]: 2.33% | NEUTROPHIL [3]: 11% | NUCLEATED RED BLOOD CELLS [3]: 0 /100WBC | PLATELET COUNT [3]: 1165.33 x10E3/uL | ABSOLUTE BASOPHIL [4]: 0 CELLS/uL | ABSOLUTE EOSINOPHIL [4]: 0 CELLS/uL | ABSOLUTE LYMPHOCYTE [4]: 15128.33 CELLS/uL | ABSOLUTE MONOCYTE [4]: 349 CELLS/uL | ABSOLUTE SEGMENTED NEUTROPHIL [4]: 956 CELLS/uL | BASOPHIL [4]: 0% | EOSINOPHIL [4]: 0% | ERYTHROCYTE COUNT [4]: 5.63 x10E6/uL | HEMATOCRIT [4]: 36.7% | HEMOGLOBIN [4]: 13.27 G/DL | LEUKOCYTE COUNT [4]: 16.43 x10E3/uL | LYMPHOCYTE [4]: 91.67% | MEAN CORPUSCULAR HEMOGLOBIN [4]: 23.6 pg | MEAN CORPUSCULAR HEMOGLOBIN CONCENTRATION [4]: 36.17 G/DL | MEAN CORPUSCULAR VOLUME [4]: 65.3 fL | MONOCYTE [4]: 2% | NEUTROPHIL [4]: 6.33% | NUCLEATED RED BLOOD CELLS [4]: 0 /100WBC | PLATELET COUNT [4]: 1150.67 x10E3/uL
